Marks after values point to notes of the source that are not given here.
Legend:
CDK9/Cyclin T1 = biological target: T1, CDK9/Cyclin T1 (Homo sapiens, UniProt P50750); experiment: CDK9 enzyme activity, LANCE ULight TR-FRET kinase assay; assay type: biochemical; settings: 1000 μM ATP, 4 nM CDK9/Cyclin T1, 30 minutes
T1 construct: purchased Carna Biosciences 04-110
In short: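 Human CDK9/Cyclin T1 (4 nM) phosphorylated 100 nM ULight-MBP peptide at 1000 μM ATP for 30 min in HEPES/MgCl2/Triton buffer. The reaction was stopped with 20 mM EDTA plus 0.5 nM Eu anti-phospho-MBP antibody and equilibrated 1 h. Read-out was TR-FRET (ex 320, em 615/665 nm).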

A431 cells = experiment: Cell viability assay (Cell TiterGlo), A431 cells; assay type: cell-based; settings: Homo sapiens, A-431, 24 hours
Procedure: Cell viability assays were performed using A431 or H929 cells. A431 cells were seeded in 96-well plates at 10,000 cells/well, and after overnight incubation, treated with compounds at 2-times the final concentration to result in a dose response of 3-fold dilutions from 10 μM to 0.0005 μM (50 μL/well, 0.1% final DMSO concentration). H929 cells were seeded in 96-well plates at 10,000 cells/well and treated immediately with compounds as described above. After 24 hours at 37° C., cell viability was measured using Cell TiterGlo reagent (Promega) with a luminescence reader. Alternately, cell viability assays were performed in 384-well format. A431 cells were seeded in 384-well plates at 2500 cells/well and, after overnight incubation, treated with compounds in a dose response of 3-fold dilutions from 10 μM to 0.0005 μM ([…], 0.1% final DMSO concentration). For the H929 viability assay, […] of the compounds was dispensed into 384-well plates in a dose response as described above and cells were immediately seeded in 384-well plates at 2500 cells/well. After 24 hours at […], cell viability was measured using Cell TiterGlo reagent (Promega) with a luminescence reader.

H929 cells = experiment: Cell viability assay (Cell TiterGlo), H929 cells; assay type: cell-based, human; settings: Homo sapiens, NCI-H929, 24 hours
In short: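 A431 cells seeded overnight, H929 cells dosed at seeding; 3-fold dilutions 10 μM to 0.0005 μM, 0.1% final DMSO, 96- or 384-well format. Viability read by CellTiter-Glo luminescence after 24 h at 37 °C.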

H929 xenograft tumors = experiment: Xenograft tumor growth inhibition assay, H929 human multiple myeloma xenograft; assay type: in vivo, mice; settings: IP, TW x 3; for % TGD (tumor growth delay): (T − C)/C × 100, median time to endpoint; for % TGI: female nude or SCID-beige mice, end of treatment period; for % removed from study: removed due to morbidity or weight loss in excess of 20%
Procedure: Xenograft Tumor Growth Inhibition Assay
The effect of Examples 1, 4, and 5 to inhibit the growth of H929 xenograft tumors implanted in mice was evaluated. NCI-H929 cells obtained from culture were suspended in cell culture medium (MEM, no calcium, no glutamine, Life Technologies Corporation) and diluted 1:1 with a solution of Matrigel™ (BD Biosciences, Franklin Lakes, N.J.). Tumor cells 5 million per site were inoculated subcutaneously into the right hind flank of female nude or SCID-beige mice (Charles River Labs).
Randomization into treatment and vehicle control groups (9-10/group) occurred when the mean tumor volume reached approximately 200 mm^3 Compounds were formulated in 2% DMSO, 5% Tween80, 20% PEG400, 73% HPMC. Administration of compound or vehicle was initiated on the day following randomization and continued for the indicated time. Tumors were measured twice a week throughout the treatment period using a pair of calipers and tumor volumes were calculated according to the formula V=L×W^2/2 (V: volume, mm^3; L: length, mm. W: width, […]). Tumor growth inhibition was calculated based on the mean tumor volume measured at the end of the treatment period according to the formula % TGI=100−mean tumor volume of treatment group/mean tumor volume of control group×100.

T1 sequence (P50750 whole entry): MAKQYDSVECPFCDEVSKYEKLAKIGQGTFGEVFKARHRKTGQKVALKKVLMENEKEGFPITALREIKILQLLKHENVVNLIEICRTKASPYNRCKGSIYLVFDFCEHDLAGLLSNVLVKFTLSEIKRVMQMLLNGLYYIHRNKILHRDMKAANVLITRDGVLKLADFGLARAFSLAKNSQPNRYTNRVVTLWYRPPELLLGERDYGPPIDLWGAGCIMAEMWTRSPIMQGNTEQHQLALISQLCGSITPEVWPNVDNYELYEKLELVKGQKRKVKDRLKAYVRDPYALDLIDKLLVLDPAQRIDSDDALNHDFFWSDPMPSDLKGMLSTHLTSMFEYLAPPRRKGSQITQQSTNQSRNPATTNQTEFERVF
T1 sequence (O60563 whole entry partner): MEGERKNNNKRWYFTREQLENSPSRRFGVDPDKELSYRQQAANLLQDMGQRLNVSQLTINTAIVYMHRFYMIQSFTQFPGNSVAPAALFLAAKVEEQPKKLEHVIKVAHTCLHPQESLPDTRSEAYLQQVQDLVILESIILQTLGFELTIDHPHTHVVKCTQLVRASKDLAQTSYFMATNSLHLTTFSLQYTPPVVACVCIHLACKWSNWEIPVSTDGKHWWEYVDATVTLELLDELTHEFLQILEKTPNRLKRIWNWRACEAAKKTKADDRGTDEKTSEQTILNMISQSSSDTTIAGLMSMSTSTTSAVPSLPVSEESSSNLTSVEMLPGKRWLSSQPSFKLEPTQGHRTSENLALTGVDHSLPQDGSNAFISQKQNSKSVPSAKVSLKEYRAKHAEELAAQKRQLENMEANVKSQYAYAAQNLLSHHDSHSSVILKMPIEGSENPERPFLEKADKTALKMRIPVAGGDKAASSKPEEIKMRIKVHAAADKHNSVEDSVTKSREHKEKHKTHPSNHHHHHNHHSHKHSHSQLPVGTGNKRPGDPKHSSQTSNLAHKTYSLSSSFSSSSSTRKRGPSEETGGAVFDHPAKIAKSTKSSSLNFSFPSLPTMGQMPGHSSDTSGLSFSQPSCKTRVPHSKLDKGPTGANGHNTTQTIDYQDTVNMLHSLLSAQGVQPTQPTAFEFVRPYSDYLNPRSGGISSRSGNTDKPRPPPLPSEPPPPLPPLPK

SMILES | IC50 (CDK9/Cyclin T1) [nM] | EC50 (A431 cells) [nM] | EC50 (H929 cells) [nM] | % TGD (tumor growth delay) (H929 xenograft tumors; 3.75 mg/kg) [%] | % TGI (H929 xenograft tumors; 3.75 mg/kg) | % removed from study (H929 xenograft tumors; 3.75 mg/kg) [%] | % TGD (tumor growth delay) (H929 xenograft tumors; 7.50 mg/kg) | % TGI (H929 xenograft tumors; 7.50 mg/kg) | % removed from study (H929 xenograft tumors; 7.50 mg/kg) [%]
Fc1cccc(CN2CCc3ccc(-c4ccnc5[nH]c(C6CCNCC6)cc45)cc32)c1 [Example 1, 4-[1-(3-fluorobenzyl)-2,3-dihydro-1H-indol-6-yl]-2-(piperidin-4-yl)-1H-pyrrolo[2,3-b]pyridine] | 64 | 550 | 490 | 55 | 64** % | 0 | 66*** % | 66*** % | 11
CS(=O)(=O)N1CCC(c2cc3c(-c4ccc5ncn(Cc6cccc(F)c6)c5c4)ccnc3[nH]2)CC1 [Example 4, 1-(3-fluorobenzyl)-6-{2-[1-(methylsulfonyl)piperidin-4-yl]-1H-pyrrolo[2,3-b]pyridin-4-yl}-1H-benzimidazole] | 24 | 9 | 15 | 5 | 25% | 0 | 42*** % | 62** % | 11
Fc1cncc(Cn2ccc3ccc(-c4ccnc5[nH]c(C6=CCNCC6)cc45)nc32)c1 [Example 51, 1′-[(5-fluoropyridin-3-yl)methyl]-2-(1,2,3,6-tetrahydropyridin-4-yl)-1H,1′H-4,6′-bipyrrolo[2,3-b]pyridine] | 14 | 11 | 90 |  |  |  |  |  | 
